Source: ChEMBL document CHEMBL2375297, “Coumarins hinged directly on benzimidazoles and their ribofuranosides to inhibit hepatitis C virus” (Eur J Med Chem, 2013)

Legend:
[1] = tested on: Hepatitis C virus; assay: Antiviral activity against Hepatitis C virus genotype 1b infected in human Huh5-2 cells assessed as luciferase activity after 4 days by Steady-Glo luciferase assay; format: functional, organism-based, Hepacivirus hominis; settings: Huh-5-2, 96 h
[2] = Cytostatic activity against human Huh5-2 cells after 3 days by MTS method; format: cell-based, Huh-5-2
[3] = Selectivity index, ratio of CC50 for human Huh5-2 cells to EC50 for Hepatitis C virus genotype 1b infected in human Huh5-2 cells; format: toxicity, cell-based, Huh-5-2; settings: read-out: Ratio CC50/EC50

SMILES	EC50 [1]	CC50 at 72 h [2]	selectivity ratio [3]
Cc1cc2nc(-c3c(C)c4ccccc4oc3=O)[nH]c2cc1C	40 µM	77 µM	2
COc1cccc2cc(-c3nc4ccc(C)cc4[nH]3)c(=O)oc12	12 µM	12 µM	1
Cc1c(-c2nc3cc(F)ccc3[nH]2)c(=O)oc2ccccc12	79 µM	170 µM	2.2
O=C(O)c1ccc2[nH]c(-c3cc4cc([N+](=O)[O-])ccc4oc3=O)nc2c1	6.9 µM	10 µM	1.5
Cc1c(-c2nc3ccccc3[nH]2)c(=O)oc2ccccc12	40 µM	27 µM	0.66
Cc1cc2nc(-c3cc4cc(Br)ccc4oc3=O)[nH]c2cc1C	40 µM	172 µM	4.3
O=C(O)c1ccc2[nH]c(-c3cc4ccc(I)cc4oc3=O)nc2c1	118 µM	118 µM	1
Cc1c(-c2nc3ccccc3n2[C@@H]2O[C@H](CO)[C@@H](O)[C@H]2O)c(=O)oc2ccccc12	110 µM	122 µM	1.1
O=c1oc2ccccc2cc1-c1nc2ccccc2n1[C@@H]1O[C@H](CO)[C@@H](O)[C@H]1O	20 µM	127 µM	6.4
O=C(O)c1ccc2[nH]c(-c3cc4ccccc4oc3=O)nc2c1	40 µM	13 µM	0.32
CC(=O)Oc1ccc2c(C)c(-c3nc4ccccc4[nH]3)c(=O)oc2c1	153 µM	153 µM	1
O=c1oc2ccccc2cc1-c1nc2cc3ccccc3cc2[nH]1	105 µM	135 µM	1.3
Cc1ccc2[nH]c(-c3c(C)c4ccccc4oc3=O)nc2c1	28 µM	29 µM	1
Cc1ccc2[nH]c(-c3cc4ccccc4oc3=O)nc2c1	2.3 µM	2.3 µM	1
Cc1cc2nc(-c3cc4ccccc4oc3=O)[nH]c2cc1C	3 µM	23 µM	7.9
COc1cccc2cc(-c3nc4cccnc4[nH]3)c(=O)oc12	84 µM	170 µM	2
O=c1oc2ccccc2cc1-c1nc2cc(F)ccc2[nH]1	84 µM	13 µM	0.15
Cc1ccc2[nH]c(-c3cc4c(ccc5ccccc54)oc3=O)nc2c1	5.5 µM	77 µM	14
CC(=O)OC[C@H]1O[C@@H](n2c(-c3cc4ccccc4oc3=O)nc3ccccc32)[C@H](OC(C)=O)[C@@H]1OC(C)=O	60 µM	98 µM	1.6
CC(=O)OC[C@H]1O[C@@H](n2c(-c3c(C)c4ccccc4oc3=O)nc3ccccc32)[C@H](OC(C)=O)[C@@H]1OC(C)=O	941 µM	941 µM	1
